Assay results published in patent US9682995B2, “Amino-substituted isothiazoles” (BAYER PHARMA AKTIENGESELLSCHAFT, priority 2013, dated 2017).

How the values were obtained:
[1] = tested on: spindle assembly checkpoint; assay: SAC-Formation - Paclitaxel-Induced Assay; format: cell-based; conditions: Homo sapiens; HeLa cells, paclitaxel 0.05 μM, 24 h, phosphorylated histone H3 on serine 10
How it was run: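 HeLa cells were plated overnight, then given paclitaxel (0.05 μM final) plus compound (0.005-20 μM, 0.5% DMSO) for 24 h at 37° C. Fixed cells were stained for phospho-histone H3 Ser10 and with Hoechst, then imaged to give mitotic index. A fall in mitotic cells marks SAC breakthrough, and values were fit with a four-parameter Hill equation.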

CDK2/CycE = CDK2/CycE (Homo sapiens (Human), UniProt P24941); assay: CDK2/CycE kinase assay (TR-FRET); format: biochemical; conditions: 10 μM ATP; read-out: CDK2 avg (IC50 [mol/l])
How it was run: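 GST-tagged human CDK2 and GST-CycE from Sf9 cells (~130 ng/ml) were preincubated with compound for 15 min at 22 °C. Reaction with 10 μM ATP and 0.75 μM biotinylated peptide (final) ran 25 min at 22 °C, pH 8.0. Phospho-peptide was read by TR-FRET (665/620 nm ratio, anti-pRB antibody, Eu donor) and normalised to no-enzyme and no-inhibitor controls.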

Structure (SMILES)	IC50 [1]	IC50 (CDK2/CycE)
COc1ncc(NC(=O)c2c(C)nsc2Nc2ccc(C#N)cn2)cc1C [Example 120, 5-[(5-Cyanopyridin-2-yl)amino]-N-(6-methoxy-5-methylpyridin-3-yl)-3-methyl-1,2-thiazole-4-carboxamide]	1200 nM	> 20000 nM
COc1ncc(NC(=O)c2c(C)nsc2Nc2cnc3ccccc3n2)cc1C [Example 121, N-(6-Methoxy-5-methylpyridin-3-yl)-3-methyl-5-(quinoxalin-2-ylamino)-1,2-thiazole-4-carboxamide]	750 nM	> 20000 nM
Cc1nsc(Nc2cnc3ccccc3n2)c1C(=O)Nc1ccc(OC(C)C)nc1 [Example 122, N-(6-Isopropoxypyridin-3-yl)-3-methyl-5-(quinoxalin-2-ylamino)-1,2-thiazole-4-carboxamide]	880 nM	> 20000 nM
